From article PMC4368603, “Cardiac Contractility Structure-Activity Relationship and Ligand-Receptor Interactions; the Discovery Of Unique and Novel Molecular Switches in Myosuppressin Signaling” (PLoS ONE, 2015)
“And” between values parts separate entries of the source, which are not always exact repeats. Equal values may be shown once. Square brackets hold non-standard residues; d marks the D form. Ends that are not written are not given here. Peptide text beside a SMILES is read from it. pGlu = O=C1CC[C@@H](C(=O)O)N1

Assays:
heart = details: cardiac contractility / heart rate SAR; cited from earlier work
Description: (§1) Table 3 DrmMS and analogs: structures and activities. | column: Heart || [6–10]DrmMS was the heart rate active core, yet [4–10]DrmMS was the gut motility active core. […] We believed DrmMS-DrmMS-R1 and DrmMS-DrmMS-R2 interactions would reflect our SAR data. N-terminal truncated and alanyl-substituted analogs (Table 3) were docked to the receptors; additional data are available in Supporting Information. In DrmMS docked to DrmMS-R1 (Fig. 4, Table 4), F7 made multipl ...

gut = gut motility SAR; cited from earlier work
Description: as §1, with “Gut” for “Heart”

R. prolixus heart = type: in vivo, Rhodnius prolixus; details: for EC50: 5th instar semi-intact preparation, 25 ± 2°C, heart rate as % of saline, non-linear regression, N = 10 animals per condition, read-out: EC50, dose-dependent decrease of R. prolixus heart rate (cardiac contractility)
Protocol: R. prolixus were maintained at 28°C under high humidity in a cycle of 12h:12h (L:D). The insects used were 5th instar 2–3 weeks post-ecdysis fed on chicken blood.
Fifth instar R. prolixus were placed ventral surface down on a dish with paraffin wax and dissected under physiological saline. Segments four to seven from the dorsal abdominal cuticle were removed using minuten pins leaving the dorsal vessel exposed. The semi-intact preparation was equilibrated in 20 μl saline for 20 minutes at room temperature (25° ± 2°C), replacing the fluid with fresh saline every five minutes. Heart rate was measured under saline after the final bath, counting the number of contractions in one minute. This counting was replicated three times for each preparation, and the results of the three countings were averaged. After this, the saline was removed and replaced with an equal volume of solution containing a peptide. The heart rate was measured and expressed as % of the control (saline). Ten animals were analyzed for control and for each experiment. The investigator who performed the bioassay was unaware of the peptide structures being tested.
Dose response curves were generated and the effective concentrations at half-maximal response (EC50) values were calculated using a non-linear regression with GraphPad Prism version 6.03. Activities of RhpMS, DrmMS, and analogs were compared to saline, set at 100%, using Single Factor ANOVA to calculate p values; significance was set at p ≤ 0.05.

| Compound | Heart activity (heart) | Gut activity (gut) | EC50 (R. prolixus heart) [nM] | Heart Rate Mean ± S.E.M., percent of saline (R. prolixus heart; peptide at 1 μM, saline = 100%, ten animals per experiment) |
| --- | --- | --- | --- | --- |
| Y-T(Bpa)VDHVFLRF-NH2 [Y-Bpa2DrmMS] | agonist | agonist | – | – |
| CC[C@H](C)[C@H](NC(=O)[C@H](CC(=O)O)NC(=O)[C@@H]1CCC(=O)N1)C(=O)N[C@@H](CC(=O)O)C(=O)N[C@@H](Cc1c[nH]cn1)C(=O)N[C@H](C(=O)N[C@@H](Cc1ccccc1)C(=O)N[C@@H](CCSC)C(=O)N[C@@H](CCCNC(=N)N)C(=O)N[C@@H](Cc1ccccc1)C(N)=O)C(C)C [RhpMS] ([pGlu]DIDHVFMRF-NH2) | – | – | 140 | 4 % of saline and 4 ± 3 % of saline |
| DHVFLRF-NH2 [[4–10]DrmMS, N-terminal truncated DrmMS analog DHVFLRF-NH2] | agonist | active core | – | – |
| DHVFMRF-NH2 [[4–10]RhpMS] | – | – | 32 | – |
| VFLRF-NH2 [[6–10]DrmMS, N-terminal truncated DrmMS analog VFLRF-NH2] | active core | inactive | – | – |
| TDVDHVFARF-NH2 [[A8] DrmMS, alanyl-substituted DrmMS analog […]-NH2] | agonist | inactive | – | – |
| HVFLRF-NH2 [[5–10]DrmMS, N-terminal truncated DrmMS analog HVFLRF-NH2] | agonist | antagonist | – | – |
| TDVDHVFLRF-NH2 [DrmMS] | – | – | 50 | – |
| FLRF-NH2 [[7–10]DrmMS, N-terminal truncated DrmMS analog FLRF-NH2] | inactive | inactive | – | – |
